Data: patent US5591763A, “treatments for diseases characterized by neovascularization” (President and Fellows of Harvard College, priority 1995, dated 1997)
“Also recorded” adds a separate entry of the source. Where two headings read alike, the source gives them in different places.

Columns and labels:
[1] = system: vascular smooth muscle cells; assay: Proliferation/growth of vascular smooth muscle cells (general statement); type: cell-based
[2] = system: endothelial cells; assay: Proliferation of endothelial cells (general statement); type: cell-based
[3] = system: human umbilical vein (HUVEC); assay: Cell growth (surface of culture flask covered by cell monolayer), human umbilical vein cells; type: cell-based; conditions: 10 μM, 48 hs, without CLT 90±2%
Experimental: (§1) Measurement of cell density in culture plates: Cells of a specific test cell line are seeded at precisely the same low density in culture plates and incubated for approximately 12 hours in DME 10% serum, or other culture medium depending on the cell line tested. […] Alternatively, the cells can be detached from the plate by incubation with trypsin (Sigma, Co.) […] in ethylene diaminotetraacetic acid (ECTA; Sigma, Co); then the cells are counted in an hemocytometer chamber (Fisher, Pittsburgh, Pa.).
(§2) Bovine endothelial (BAEC) and human umbilical vein (HUVEC): Cells were seeded at a low density (2.5×10^5) in cell culture flasks (75 ml flasks) containing DME 10% calf serum (BAEC) or fetal calf serum (HUVEC); after 12 hs, when the cells were attached to the surface of the flasks, CLT (10 μM) or carrier (ethanol) were added to triplicate flasks. After 48 hs cell growth was assessed by optic miscroscopy calculating the surface of the culture flask covered by the cell monolayer.

[4] = system: vascular smooth muscle cells; assay: Proliferative response to mitogens released from MAC-treated endothelial cells, vascular smooth muscle cells; type: cell-based; conditions: 10 μM CLT; quiescent vascular smooth muscle cells; conditioned media from MAC treated EC; FIG. 5
Experimental: (§3) CLT inhibits the mitogenic activity released from endothelial cells by activated component. When endothelial cells (EC) in culture (both BAEC and HUVEC) are treated with terminal complement components to form the MAC (membrane attack complex of complement), they release into the culture medium a potent mitogenic activity that stimulates the proliferation of quiescent cells used as indicators of the mitogens. Both, quiescent Swiss 3T3 and vascular smooth muscle cells are stimulated by the mitogens released form EC in response to the MAC (FIG. 5; Halperin et al. unpublished observation). Moreover, immunoprecipitation with specific antibodies has documented that both PDGF and bFGF released from the EC contribute in approximately equal proportion to the mitogenic activity induced by the MAC (data not shown).
(§4) To determine whether CLT inhibited the cell proliferative activity released by the MAC from EC, quiescent 3T3 and vascular smooth muscle cells were stimulated in the presence and absence of 10 μM CLT with conditioned media obtained from MAC treated EC.

[5] = system: rat vascular smooth muscle cells; assay: cells; type: cell-based
Experimental: DNA synthesis assessed by the uptake of [3H]thymidine: Cells are grown in either 48 or 96 wells plates (Costar, Cambridge, Mass.) at 104 and 0.8 10^3 cells per well, respectively, and grown in Dubelcco's modified Eagle's medium (DME, Gibco, Grand Island, N.Y.) supplemented with 10% heat-inactivated calf serum; they are kept at 37° C. in 5% CO2. When they reach confluence, usually between 3 and 4 days, the medium is replaced with DME 0.5% serum to make them quiescent, and mitogenesis assays are performed 24 hours later.
Quiescent cells are exposed to a mitogenic stimulus, such as 10% serum, PDGF (Sigma Co. St. Louis, Mo.), bFGF (Upstate Biotechnologies, Lake Placid, N.Y.), or other appropriate mitogen according to the cell line, and 3 hours later 1 μCi/ml of [3H]thymidine (Dupont, Billerica, Mass. ) is added to the wells, and the cells maintained at 37° C./5% CO2 for additional 21 hours. Then the cells are washed 3 times with DME medium and the acid-precipitable radioactivity is extracted with cold 10% TCA (Sigma, Co). After neutralization with 0.3 N NaOH (Sigma Co.), aliquots are counted in a Packard Tri-Carb Scintillation counter (Packard Instrument, Downer's Grove, Ill.).
Rat vascular smooth muscle cells (murine cell line): Quiescent cells were stimulated with purified growth factors (PDGF and bFGF, […]) and synthesis of DNA was assessed by the incorporation of [3H]thymidine measured 24 hours later.
Cells were stimulated using […] bFGF. […] (FIG. 2)
Other antimycotics were tested for their inhibition of bFGF-stimulated DNA synthesis in rat vascular smooth muscle cells.

[6] = molecular target: T1, Ca^++ activated K channel of human erythrocytes (Homo sapiens, UniProt O15554); assay: Inhibition of Ca++ activated K channel of human erythrocytes, K efflux; type: biochemical; conditions: 60 μmol A23187/L cell, 100 μM CaCl2
T1 construct: Preparation of Human Red Blood Cells: Blood is collected in heparinized tubes; endogenous in cells; host or cells: washed human erythrocytes (red blood cells from heparinized blood)
Description: Ca^++ -sensitive K+ channels have wide distribution among cells, including the human red cell where they were originally discovered and which is the most commonly utilized assay system for activators and inhibitors of the channel for the following reasons: they are readily available, can be easily manipulated in the laboratory, and transport assays can be accurately standardized by reading the hemoglobin concentration of a red cell suspension.
Preparation of Human Red Blood Cells: Blood is collected in heparinized tubes and centrifuged in a Sorvall centrifuge (RB 5B, Du Pont Instruments,Newtown, Conn.) at 5° C. for 10 minutes at 3000 g. Plasma and buffy coat are carefully removed and the cells washed four times with a washing solution containing 150 mM choline chloride (Sigma Co), 1 mM MgCl2 (Sigma Co),10mM Tris-MOPS (Sigma, Calif.), pH 7.4 at 4° C.(CWS). An aliquot of cells is then suspended in an approximately equal volume of CWS, and from this original cell suspension hematocrit (Hct) and hemoglobin (optical density at 540 nm) are determined. […]
(§5) The inhibitory effect of (CLT) on the Ca^++ activated K channel of human erythrocytes was assessed in the presence of 60 μmol A23187/L cell and 100 μMCaCl2.

[7] = molecular target: T1, Ca^++ activated K channel of human erythrocytes; assay: Inhibition of Ca++ activated K channel of human erythrocytes, 86Rb influx; type: biochemical; conditions: for Order of inhibitory potency, Ca++ activated 86Rb influx / Inhibition of Ca++ activated 86Rb influx by other antimycotics: human erythrocytes; for Inhibition of Ca++ activated 86Rb influx by other antimycotics: FIG. 4
Experimental: Preparation of Human Red Blood Cells: Blood is collected in heparinized tubes and centrifuged in a Sorvall centrifuge (RB 5B, Du Pont Instruments,Newtown, Conn.) at 5° C. for 10 minutes at 3000 g. Plasma and buffy coat are carefully removed and the cells washed four times with a washing solution containing 150 mM choline chloride (Sigma Co), 1 mM MgCl2 (Sigma Co),10mM Tris-MOPS (Sigma, Calif.), pH 7.4 at 4° C.(CWS). An aliquot of cells is then suspended in an approximately equal volume of CWS, and from this original cell suspension hematocrit (Hct) and hemoglobin (optical density at 540 nm) are determined.
Methods to Test Inhibitors of the Ca^++ Activated K channel: To test inhibitors of the Ca^++ activated K channel, the channel is activated using the calcium ionophore A23187 (Calbiochem).
By radioisotopic measurement of ^86 Rb influx. The incubation medium is the same but contains 2 mM KCl and 1 μCi/ml of the radioactive tracer ^86 Rb. After spinning the samples through the phthalate layer, the tubes are rapidly frozen (-80° C.) by immersion in methanol-dry ice, the tips of the tubes containing the packed red cells cut, and counted in a Packard Gamma Counter.
as §5
Other antimycotics were tested for their inhibition of the Ca++ activated 86Rb influx human erythrocytes.

[8] = system: Swiss 3T3 cells; assay: Proliferative response to mitogens released from MAC-treated endothelial cells, 3T3 cells; type: cell-based; conditions: 10 μM CLT; quiescent 3T3 cells; conditioned media from MAC treated EC; FIG. 5
Experimental: as §3, §4

[9] = system: bovine endothelial (BAEC); assay: Cell growth (surface of culture flask covered by cell monolayer), bovine endothelial cells; type: cell-based; conditions: 10 μM, 48 hs, without CLT 90±2%
Experimental: as §1, §2

[10] = hormonal adjuvant for prostate cancer; cited from earlier work
[11] = system: 21- and/or 11-hydroxylase; conditions: cited from earlier work
[12] = system: 17-20 desmolase; conditions: cited from earlier work
[13] = system: epidermal cells; assay: Growth of epidermal cells (general statement); type: cell-based
[14] = system: 17-hydroxylase; conditions: cited from earlier work

For N=C(N)NC(=O)c1nc(Cl)c(N)nc1N [amiloride], the “Inhibition of proliferation/growth of vascular smooth muscle cells” value [1] was “do not inhibit cell proliferation” and the “Inhibition of proliferation of endothelial cells” value (“Inhibition … of endothelial cells” for short) [2] was “do not inhibit cell proliferation”.
With Clc1ccccc1C(c1ccccc1)(c1ccccc1)n1ccnc1 [clotrimazole] the “Flask surface covered by cells in the presence of CLT” value [3] was “less than 10%”, the “Inhibition of proliferative response to mitogens released from EC” value [4] was “completely inhibited” and the “Dose response of inhibition of DNA synthesis” value [5] was “dose dependent”. The “Inhibition of DNA synthesis” value [5] was “complete inhibition”, the “Inhibition of PDGF stimulated DNA synthesis” value [5] was “completely inhibited” and the “Inhibition of bFGF stimulated DNA synthesis” value [5] was “completely inhibited”. For the same compound, the “Inhibition of bFGF-stimulated DNA synthesis” value [5] was “inhibited DNA synthesis”, the “Order of inhibitory potency, bFGF-stimulated DNA synthesis” value [5] was “CLT more potent than ECZ” and the “Reversibility of the inhibition of DNA synthesis” value [5] was “reversed by removing CLT”. The inhibition at 1 µM ([5]; Rattus norvegicus, read-out: Inhibition of DNA synthesis) was 45%, the “Inhibition of Ca^++ activated K efflux” value [6] was “markedly inhibited” and the “Inhibition of Ca^++ activated 86Rb influx” value ([7]; 60 μmol A23187/L cell, 100 μM CaCl2) was “markedly inhibited”. For the same compound, the “Order of inhibitory potency, Ca++ activated 86Rb influx” value [7] was “clotrimazole more than miconazole”, the “Inhibition of proliferative response to mitogens released from EC” value [8] was “completely inhibited” and the “Flask surface covered by cells in the presence of CLT” value [9] was “less than 10%”.
In the case of Clc1ccc(COC(Cn2ccnc2)c2ccc(Cl)cc2Cl)cc1 (stereo not drawn) [econazole], the “Order of inhibitory potency, bFGF-stimulated DNA synthesis” value ([5]; 10 μM, FIG. 3) was “ECZ more potent than MCZ”, the “Inhibition of bFGF-stimulated DNA synthesis” value ([5]; antimycotics at 10 μM, FIG. 3) was “inhibited DNA synthesis” and the “Order of inhibitory potency, Ca++ activated 86Rb influx” value [7] was “both of these were more than econazole”.
In the case of OC(Cn1cncn1)(Cn1cncn1)c1ccc(F)cc1F [fluconazole], the “Inhibition of Ca++ activated 86Rb influx by other antimycotics” value (“Inhibition of Ca++ activated 86Rb influx” below) [7] was “no inhibition”.
In the case of CC(=O)N1CCN(c2ccc(OCC3COC(Cn4ccnc4)(c4ccc(Cl)cc4Cl)O3)cc2)CC1 (stereo not drawn) [ketoconazole], the “Inhibition of proliferation/growth of vascular smooth muscle cells” value [1] is given as “not useful for inhibiting; also recorded: ineffective”, the Plasma testosterone reduction [10] is given as “reduces plasma testosterone to castration levels” and the “Inhibition of 21- and/or 11-hydroxylase” value [11] is given as “marked inhibition”. For the same compound, the “Inhibition of 17-20 desmolase” value [12] was “inhibition”, the “Inhibition of growth of epidermal cells” value [13] was “ineffective” and the “Blockade of 17-hydroxylase” value [14] was “partial blockade”. The “Inhibition … of endothelial cells” value [2] was “not useful for inhibiting”.
For Cc1ncc([N+](=O)[O-])n1CCO [metronidazole], the “Inhibition of Ca++ activated 86Rb influx” value [7] was “only marginal”.
For Clc1ccc(COC(Cn2ccnc2)c2ccc(Cl)cc2Cl)c(Cl)c1 (stereo not drawn) [miconazole], the “Order of inhibitory potency, bFGF-stimulated DNA synthesis” value ([5]; 10 μM, FIG. 3) was “ECZ more potent than MCZ”, the “Inhibition of bFGF-stimulated DNA synthesis” value ([5]; antimycotics at 10 μM, FIG. 3) was “inhibited DNA synthesis” and the “Order of inhibitory potency, Ca++ activated 86Rb influx” value [7] was “both of these were more than econazole”.
With Cc1ncc([N+](=O)[O-])n1CC(O)CCl (stereo not drawn) [ornidazole] the “Inhibition of Ca++ activated 86Rb influx” value [7] was “no inhibition”.
In the case of C[C@@H]1O[C@@H](O[C@H]2C[C@@H](O)[C@]3(CO)[C@H]4[C@H](O)C[C@]5(C)[C@@H](C6=CC(=O)OC6)CC[C@]5(O)[C@@H]4CC[C@]3(O)C2)[C@H](O)[C@H](O)[C@H]1O [ouabain], the “Inhibition of proliferation/growth of vascular smooth muscle cells” value [1] was “do not inhibit cell proliferation” and the “Inhibition … of endothelial cells” value [2] was “do not inhibit cell proliferation”.
In the case of CCS(=O)(=O)CCn1c([N+](=O)[O-])cnc1C [tinidazole], the “Inhibition of Ca++ activated 86Rb influx” value [7] was “no inhibition”.
For charybdotoxin, the “Inhibition of proliferation/growth of vascular smooth muscle cells” value [1] was “do not inhibit proliferation”, the “Inhibition of DNA synthesis by other inhibitors of the Ca^++ activated K channel” value (“Inhibition … of the Ca^++ activated K channel” for short) ([5]; FIG. 3) was “failed to inhibit DNA synthesis” and the “Inhibition … of endothelial cells” value [2] was “do not inhibit proliferation”.
For “iberiotoxin (QFTDVDCSVSKECWSVCKDLFGVDRGKCMGKKCRCYQ; UniProt P24663 1-37, looked up)”, the “Inhibition of proliferation/growth of vascular smooth muscle cells” value [1] was “do not inhibit proliferation”, the “Inhibition … of the Ca^++ activated K channel” value ([5]; FIG. 3) was “failed to inhibit DNA synthesis” and the “Inhibition … of endothelial cells” value [2] was “do not inhibit proliferation”.
For “kaliotoxin: specific inhibitor of the Ca^++ activated potassium channel”, the “Inhibition of proliferation/growth of vascular smooth muscle cells” value [1] was “do not inhibit proliferation”, the “Inhibition … of the Ca^++ activated K channel” value ([5]; FIG. 3) was “failed to inhibit DNA synthesis” and the “Inhibition … of endothelial cells” value [2] was “do not inhibit proliferation”.
